Measurements reported in PubChem BioAssay (NCI).
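96-well plates; 48 h exposure; 5 concentrations. Endpoints by linear interpolation between flanking doses. Not reached: highest tested concentration assigned. TGI marks complete inhibition of growth.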

How the values were obtained:
Experiment in all cases: growth of human tumour cells (NCI), 48 h
[1] = test system: A549 NSCLC
[2] = test system: ACHN renal
[3] = test system: CCRF-CEM leukemia
[4] = test system: COLO 205 colon
[5] = test system: HCC-2998 colon
[6] = test system: HL-60(TB) leukemia
[7] = test system: HOP-92 NSCLC
[8] = test system: IGROV1 ovarian
[9] = test system: LOX IMVI melanoma
[10] = test system: M14 melanoma
[11] = test system: MALME-3M melanoma
[12] = test system: MDA-MB-231 breast
[13] = test system: NCI/ADR-RES ovarian
[14] = test system: RPMI-8226 leukemia
[15] = test system: RXF 393 renal
[16] = test system: SF-295 CNS
[17] = test system: SNB-19 CNS
[18] = test system: U251 CNS
[19] = test system: UACC-62 melanoma
[20] = test system: SR leukemia

Row | Compound | TGI [1] [µM] | TGI [2] [µM] | TGI [3] [µM] | TGI [4] [µM] | TGI [5] [µM] | TGI [6] [µM] | TGI [7] [µM] | TGI [8] [µM] | TGI [9] [µM] | TGI [10] [µM] | TGI [11] [µM] | TGI [12] [µM] | TGI [13] [µM] | TGI [14] [µM] | TGI [15] [µM] | TGI [16] [µM] | TGI [17] [µM] | TGI [18] [µM] | TGI [19] [µM] | TGI [20] [µM]
1 | O=C(C=P(c1ccccc1)(c1ccccc1)c1ccccc1)c1ccc(-c2cccs2)cc1 | 11.6 | 19.8 | 22.1 | 1.95 | 6.46 | 4.87 | 11.3 | 21.2 | 19.6 | 7.75 | 13.4 | 25.5 | 23.1 | 5.07 | 15.4 | 17.4 | 11.2 | 14.7 | 10.7 | 
2 | CC(=O)O[C@@H]1C[C@]2(C(=O)c3ccccc3)C(=O)C(=O)S[C@]12c1ccccc1 | > 100 | > 100 |  | > 100 | 75.1 |  | > 100 | > 100 | > 100 | > 100 | > 100 | > 100 | > 100 | 99.4 | 49.9 | > 100 | > 100 | > 100 | > 100 | 83.1
3 | O=C(COc1ccc(Cl)c(Cl)c1)Nc1ccc[n+](Cc2ccc(S(=O)(=O)F)c(Cl)c2)c1 | > 100 | > 100 |  | > 100 |  | > 100 | > 100 | > 100 |  | > 100 | > 100 | > 100 | > 100 | 65.4 | > 100 | > 100 | > 100 | > 100 | > 100 | > 100
4 | CCOc1cc(C2CC(c3ccc(NS(=O)(=O)c4cc([N+](=O)[O-])ccc4C)cc3)=NN2S(=O)(=O)c2cc([N+](=O)[O-])ccc2C)ccc1O (stereo not given) | > 100 | > 100 | > 100 | > 100 |  | > 100 | 60.7 | > 100 | > 100 | > 100 | > 100 | > 100 | > 100 | > 100 | 70.7 | > 100 | > 100 | > 100 |  | > 100
5 | COc1cc(C(=O)NC2CCc3cc(OC)c(OC)c(OC)c3-c3ccc(OC)c(=O)cc32)cc(OC)c1OC (stereo not given) | > 100 | > 100 | > 35 | 0.23 | 1.16 | 0.262 | 3.62 | 71.6 | > 100 | 10.5 | 85.3 | > 100 | 70.3 | 27.4 | 24 | 13 | > 100 | 33.4 | 45.9 | > 100
6 | O=C(CSCC(=O)N/N=C/c1ccc2c(c1)OCO2)N/N=C/c1ccc2c(c1)OCO2 | > 100 | > 100 | > 100 |  | > 100 | > 100 | > 100 | > 100 | > 100 | > 100 | > 100 | > 100 | > 100 | > 100 | > 100 | > 100 | > 100 | > 100 | > 100 | 
7 | Cc1ccc(O)c(Cc2nc3ccccc3nc2-c2cccc(Cl)c2)c1 | > 100 | > 100 |  | > 100 | > 100 | > 100 | 78.5 | > 100 | > 100 | > 100 | > 100 | > 100 | > 100 | 79.4 | > 100 | > 100 | 63.4 | > 100 | > 100 | > 100
8 | COc1ccccc1/C=C/c1ccnc2ccccc12 | 31 | 32.8 | 34.8 | 33.2 | 31.3 | 26 | 26.2 | 19.9 | 36 | 29.7 | 24.8 | 31.1 | 32.4 | 37.8 |  | 27.2 | 28.2 | 24.2 | 24.5 | 35.7
9 | CCCCc1ccc(N=C(N)N)cc1 | > 100 | > 100 | 53.7 | 35.4 | 30.4 | 73.6 | > 100 | 71.7 | > 100 | 63.5 | > 100 | > 100 | > 100 | 45.2 |  | 87.3 | > 100 | > 100 | > 100 | 
10 | C[C@H]1C[C@@H]2[C@H]([C@@H](O)C[C@@]3(C)[C@H]2CC[C@]3(O)C(=O)CO)[C@@]2(C)C=CC(=O)C=C12 | > 100 | > 100 | > 100 | > 100 | > 100 | > 100 | > 100 | > 100 | > 100 | > 100 | > 100 |  |  | > 100 |  |  |  |  | > 100 | > 100
